# Measurements from patent US20040248880A1, “1,2,3,4,5,6-Hexahydroazepino[4,5-B]indoles containing arylsulfones at the 9-position” (priority 2003, published 2004).
# Structures can show the parent of a compound that is named as a salt.
row,SMILES,melting point
1,Cl.Cn1c2c(c3cc(S(=O)(=O)c4ccccc4)ccc31)CCNCC2,> 300 °C
2,"O=S(=O)(c1cccc(F)c1)c1ccc2[nH]c3c(c2c1)CCNCC3 [Example 5, 9-[(3-Fluorophenyl)sulfonyl]-1,2,3,4,5,6-hexahydroazepino[4,5-b]indole]",153 to 156 °C
3,"CC(C)N1CCc2c(n(C)c3ccc(S(=O)(=O)c4ccc(F)cc4)cc23)CC1 [Example 20, 9-[(4-fluorophenyl)sulfonyl]-3-isopropyl-6-methyl-1,2,3,4,5,6-hexahydroazepino[4,5-b]indole]",282 to 283 °C (dec.)
4,CN1CCc2[nH]c3ccc(S(=O)(=O)c4ccccc4)cc3c2CC1,150 °C (dec.)
5,COc1cccc(S(=O)(=O)c2ccc3[nH]c4c(c3c2)CCNCC4)c1.Cl,232 to 235 °C (dec.)
6,"O=S(=O)(c1ccc(F)cc1)c1ccc2[nH]c3c(c2c1)CCNCC3 [Example 2, 9-[(4-Fluorophenyl)sulfonyl]-1,2,3,4,5,6-hexahydroazepino[4,5-b]indole]",168 °C (dec.)
7,"CCn1c2c(c3cc(S(=O)(=O)c4ccccc4)ccc31)CCNCC2 [Example 8, 6-Ethyl-9-(phenylsulfonyl)-1,2,3,4,5,6-hexahydroazepino[4,5-b]indole]",224 °C (dec.)
8,"Cn1c2c(c3cc(S(=O)(=O)c4ccc(OCCO)cc4)ccc31)CCNCC2 (as salt: hydrochloride) [Example 17, 9-[(4-(2-Hydroxyethoxy)phenyl)sulfonyl]-6-methyl-1,2,3,4,5,6-hexahydroazepino[4,5-b]indole hydrochloride]",285 to 287 °C (dec.)
9,"Cc1ccc(S(=O)(=O)c2ccc3[nH]c4c(c3c2)CCNCC4)cc1 [Example 3, 9-[(4-Methylphenyl)sulfonyl]-1,2,3,4,5,6-hexahydroazepino[4,5-b]indole]",125 °C (dec.)
10,Cl.O=S(=O)(c1cc(F)cc(F)c1)c1ccc2[nH]c3c(c2c1)CCNCC3,313 to 315 °C (dec.)
11,CCn1c2c(c3cc(S(=O)(=O)c4ccc(F)cc4)ccc31)CCNCC2.Cl,227 to 233 °C (dec.)
12,Cl.Cn1c2c(c3cc(S(=O)(=O)c4cc(F)cc(F)c4)ccc31)CCNCC2,337 to 340 °C (dec.)
13,Cl.O=S(=O)(c1ccccc1)c1ccc2[nH]c3c(c2c1)CCNCC3,290 to 291.5 °C
14,Cl.O=S(=O)(c1ccc(C(F)(F)F)cc1)c1ccc2[nH]c3c(c2c1)CCNCC3,278 to 279 °C (dec.)
15,"CN1CCc2c(n(C)c3ccc(S(=O)(=O)c4ccccc4)cc23)CC1 [Example 18, 3,6-Dimethyl-9-(phenylsulfonyl)-1,2,3,4,5,6-hexahydroazepino[4,5-b]indole]",283 to 286 °C
16,Cl.O=S(=O)(c1ccc(F)c(F)c1)c1ccc2[nH]c3c(c2c1)CCNCC3,320 °C (dec.)
17,"COc1ccc(S(=O)(=O)c2ccc3[nH]c4c(c3c2)CCNCC4)cc1 [Example 4, 9-[(4-Methoxyphenyl)sulfonyl]-1,2,3,4,5,6-hexahydroazepino[4,5-b]indole]",139 °C (dec.)
